Data as given in US20220024851A1, “CRYSTALLINE FORMS OF MULTICYCLIC COMPOUNDS AND USES THEREOF” (Convelo Therapeutics, Inc., priority 2018, published 2022).
Structures can show the parent of a compound that is named as a salt.

Columns and labels:
Type in all cases: physicochemical
[1] = Dynamic vapor sorption (DVS) / hygroscopicity; settings: for Desorption, hysteresis and form change after moisture sorption-desorption: moisture sorption-desorption cycles, XRPD
Method: The crystalline forms provided can be additionally characterized by dynamic vapor sorption (DVS), wherein a sample is subjected to varying conditions of humidity and temperature, and the response of the sample is measured gravimetrically. The result of a DVS analysis particularly can be a dual curve providing sample weight percent as a function of relative humidity (RH) over time, a dual curve providing sample water content as a function of RH over time, a curve providing weight percent in relation to RH, or a curve providing water content in relation to RH. Equipment useful for measuring such data is known in the art, and any such equipment can be used to measure the compounds according to the present invention. In certain embodiments, DVS analysis can be carried out by scanning at a series of specific RH values. Thus, specific crystalline forms according to the invention may be identified and described in relation to the representative graph and/or the approximate peaks obtained in DVS analysis, particularly scanning from 0% to 95% RH with a step interval of 5% or 10% RH.
Hygroscopicities of the materials described in the present disclosure are classified according to Table 1
DVS data were collected on a VTI SGA-100 Vapor Sorption Analyzer. NaCl and PVP were used as calibration standards. Samples were not dried prior to analysis. Sorption and desorption data were collected over a range from 5% to 95% RH at 10% RH increments under a nitrogen purge. The equilibrium criterion used for analysis was less than 0.0100% weight change in 5 minutes with a maximum equilibration time of 3 hours. Data were not corrected for the initial moisture content of the samples.

[2] = Thermogravimetric analysis (TGA), thermal decomposition; settings: for Decomposition onset: TGA, heated under nitrogen
Method: TGA is a method of thermal gravimetric analysis in which changes in physical and chemical properties of a material are measured as a function of increasing temperature (with constant heating rate) or as a function of time (with constant temperature and/or constant mass loss). TGA can provide information about physical phenomena, such as second-order phase transitions, or about chemical phenomena, such as desolvation and/or decomposition.
TG analyses described herein were performed using a Mettler Toledo TGA/DSC3+ analyzer. Balance check was performed using calcium oxalate, and temperature calibration was performed using indium, tin, and zinc. The sample was placed in an aluminum pan. The sample was sealed, the lid pierced, then inserted into the TG furnace. The furnace was heated under nitrogen.

[3] = Aqueous kinetic solubility by aliquot addition method; settings: water; for Kinetic Solubility / solubility kinetic: ambient temperature, visual dissolution
Text: Generated solids were typically observed by polarized light microscopy and, if crystalline (i.e. display birefringence and extinction), analyzed by XRPD. The XRPD patterns were compared to each other and to available reference patterns of salt formers. If unique by XRPD, the materials were further analyzed by ^1H NMR, TGA, DSC, and DVS. Kinetic solubilities of selected materials were estimated by aliquot addition method. Equilibrium solubilities were estimated gravimetrically using supernatants from suspensions equilibrated at ambient temperature for approximately 7-10 days.
Weighed samples of material were treated with aliquots of water at ambient temperature. Samples were typically sonicated between additions to facilitate dissolution. Complete dissolution was observed through visual inspection. Solubilities were calculated based on the total amount of solvent added to achieve complete dissolution and may be greater than the value reported due to incremental solvent addition and the inherent kinetics of dissolution. If dissolution was not observed, values are reported as “less than”. If complete dissolution was observed upon the first aliquot of solvent, values are reported as “greater than”.
Kinetic solubility was estimated by aliquot addition method, and dissolution was judged by visual observations. If dissolution was not observed, values are reported as “less than.” If complete dissolution was observed upon the first aliquot of solvent, values are reported as “greater than.” Kinetic solubility of selected salts is presented in Table 8.

[4] = upon increase of RH / entire RH range

SMILES	DVS weight gain ([1]; 5-85% RH)	DVS weight gain ([1]; 85-95% RH)	Desorption, hysteresis and form change after moisture sorption-desorption [1]	Hygroscopicity [1, 4]	Decomposition onset [2] [°C]	Kinetic Solubility [3] [µg/mL]	Kinetic Solubility ([3]; listed as Besylate slat) [µg/mL]	DVS weight gain ([1]; 5-75% RH)	DVS weight gain ([1]; 75-95% RH)	Hygroscopicity ([1]; above 75% RH)	Hygroscopicity ([1]; below 75% RH)	DVS weight gain ([1]; 5 to 95% RH)	solubility kinetic [3] [µg/mL]	fold more soluble than all other crystalline salts isolated (kinetic solubility) ([3]; vs other crystalline salts)	DVS weight gain ([1]; 5-95% RH)	Hygroscopicity ([1]; upon increase of RH / entire RH range, listed as salicylate)	Thermal stability [2]	Hygroscopicity ([1]; above 65% RH)	Hygroscopicity ([1]; below 65% RH)
CCN(C/C=C\c1ccc(C2CCCCC2)c(Cl)c1)C1CCCCC1.O=S(=O)(O)c1ccccc1 [Besylate salt, Besylate Salt of Cis-N-cyclohexyl-N-ethyl-3-(3-chloro-4-cyclohexylphenyl)prop-2-enylamine]	about 0.88%	about 0.85%	complete desorption without form change and with almost no hysteresis	limited hygroscopicity	274	<600	< 1000												
CCN(C/C=C\c1ccc(C2CCCCC2)c(Cl)c1)C1CCCCC1.O=S(=O)(O)CCS(=O)(=O)O [Edisylate salt, Edisylate Salt of Cis-N-cyclohexyl-N-ethyl-3-(3-chloro-4-cyclohexylphenyl)prop-2-enylamine]			form change to a highly disordered material		260			about 0.35%	about 18.55%	significant hygroscopicity and deliquesces	non-hygroscopic								
CCN(C/C=C\c1ccc(C2CCCCC2)c(Cl)c1)C1CCCCC1.CCS(=O)(=O)O [Esylate salt, Esylate Salt of Cis-N-cyclohexyl-N-ethyl-3-(3-chloro-4-cyclohexylphenyl)prop-2-enylamine]	about 0.35%	0.51%	complete desorption without hysteresis or form change	limited hygroscopicity	268							about 0.9 wt %	30000	more than 30 fold					
CCN(C/C=C\c1ccc(C2CCCCC2)c(Cl)c1)C1CCCCC1 [Salicylate salt, Salicylate Salt of Cis-N-cyclohexyl-N-ethyl-3-(3-chloro-4-cyclohexylphenyl)prop-2-enylamine]				non-hygroscopic	212							about 0.04 wt %	< 1000		about 0.04%	lack of hygroscopicity	thermally stable		
CCN(C/C=C\c1ccc(C2CCCCC2)c(Cl)c1)C1CCCCC1.O=C(O)c1ccc2ccccc2c1O [Xinafoate salt, Xinafoate Salt of Cis-N-cyclohexyl-N-ethyl-3-(3-chloro-4-cyclohexylphenyl)prop-2-enylamine]	about 0.88%	about 0.85%	A form change is suggested		146													limited hygroscopicity	non-hygroscopic
